Data on nine compounds can be found in PubChem BioAssay (NCI).

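Protocol summary: plate cells (96-well), add compound at 5 concentrations, incubate 48 h, interpolate endpoints linearly. The concentration for 50% growth inhibition is given as GI50. The concentration for full growth arrest is given as TGI.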 A value given as a limit tells only on which side of the number the result lay.

Some test systems named below: MOLT-4 leukemia; HL-60(TB) leukemia; OVCAR-3 ovarian; SN12C renal; PC-3 prostate; ACHN renal; BT-549 breast; RXF 393 renal; MDA-MB-231 breast; SK-MEL-2 melanoma.
What all share (assay): NCI anticancer screen, dose series, 48 h

On to `S=C1SC2=Nc3ccccc3CN2C2=NCCN12`, for which the GI50 in the experiment with MOLT-4 leukemia is 39.9 µM; in the experiment with HL-60(TB) leukemia, 89.2 µM; with OVCAR-3 ovarian, 80.8 µM; in the experiment on SN12C renal it was more than 100 µM; in the experiment on PC-3 prostate it was more than 100 µM; in the experiment with ACHN renal, more than 100 µM. For the same compound, the values for the GI50 in the experiment with BT-549 breast, in the experiment on RXF 393 renal and in the experiment on MDA-MB-231 breast were 99.9 µM, 23.3 µM and more than 100 µM, respectively. Moreover, the TGI in the experiment with MOLT-4 leukemia, in the experiment on HL-60(TB) leukemia, with OVCAR-3 ovarian, in the experiment on SN12C renal, in the experiment on PC-3 prostate and with ACHN renal was more than 100 µM throughout. Further, the TGI was more than 100 µM with BT-549 breast, 80.4 µM with RXF 393 renal and more than 100 µM in the experiment with MDA-MB-231 breast.

Take `C=C1CC[C@@H](C(C)C)C[C@@H]2[C@H]([C@H](O)C[C@]2(C)O)[C@@]2(C)CC[C@@H]1O2`: the GI50 is 22.8 µM in the experiment on MOLT-4 leukemia; 22.6 µM in the experiment on HL-60(TB) leukemia; 14.8 µM in the experiment on OVCAR-3 ovarian; 23.2 µM in the experiment with SK-MEL-2 melanoma; 11.2 µM in the experiment on SN12C renal; 16.5 µM with ACHN renal. In addition, the GI50 in the experiment on BT-549 breast was 27.6 µM; in the experiment with RXF 393 renal it was 19.6 µM; with MDA-MB-231 breast, 13.9 µM. Besides, the TGI is 51.2 µM in the experiment with MOLT-4 leukemia; 57 µM in the experiment on HL-60(TB) leukemia; 29.5 µM in the experiment on OVCAR-3 ovarian; 50.6 µM in the experiment on SK-MEL-2 melanoma; 23.3 µM in the experiment with SN12C renal; 30 µM with ACHN renal. The TGI with BT-549 breast is 55.1 µM; in the experiment on RXF 393 renal, 34.1 µM; in the experiment on MDA-MB-231 breast, 28 µM.

Regarding `CO/N=C(/C)c1cccc(Nc2cc(-c3ccccc3)nc3ccc(OC)cc23)c1`, the GI50 with MOLT-4 leukemia is 3.05 µM; in the experiment with SK-MEL-2 melanoma it was 50.3 µM; in the experiment on SN12C renal, 2.9 µM; in the experiment on PC-3 prostate, 4.68 µM; in the experiment with ACHN renal, 14.1 µM; in the experiment on BT-549 breast, 22.4 µM. For the same compound, in the experiment with MDA-MB-231 breast, the GI50 is 3.49 µM. In addition, the TGI with MOLT-4 leukemia is more than 100 µM; in the experiment on SK-MEL-2 melanoma, more than 100 µM; in the experiment with SN12C renal, 9.67 µM; in the experiment with PC-3 prostate, 21.6 µM; in the experiment with ACHN renal, 31.5 µM; in the experiment on BT-549 breast, 46.6 µM. The compound also registered a TGI with MDA-MB-231 breast of 17.8 µM.

Take `COC(=O)CCC1=C(CC(=O)OC)C(C)=N/C1=C\c1[nH]c(-c2ccc[nH]2)cc1OC`: the GI50 was 2.31 µM with MOLT-4 leukemia; 2.56 µM in the experiment with HL-60(TB) leukemia; 2.43 µM in the experiment with OVCAR-3 ovarian; 11.1 µM in the experiment on SN12C renal; 5.32 µM in the experiment with PC-3 prostate; 4.26 µM in the experiment on ACHN renal. The values for the GI50 in the experiment with BT-549 breast, with RXF 393 renal and with MDA-MB-231 breast were 6.49 µM, 2.15 µM and 2.37 µM, respectively. For the same compound, the TGI in the experiment with MOLT-4 leukemia stood at 20.1 µM; with HL-60(TB) leukemia, 14.3 µM; in the experiment on OVCAR-3 ovarian, 10.2 µM; in the experiment with SN12C renal, 24.9 µM; in the experiment on PC-3 prostate, 22.6 µM; in the experiment with ACHN renal, 15.6 µM. In addition, the results for the TGI in the experiment with BT-549 breast, with RXF 393 renal and in the experiment on MDA-MB-231 breast were 21.6 µM, 9.56 µM and 11.6 µM, respectively.

For the compound `CC(C)C1=C2CCC3(C)C(CCC4C5C6OCC5(CCC6(C)C)CCC43C)C2(C)CC1` (centres undefined), the TGI amounted to 34.6 µM in the experiment on MOLT-4 leukemia; 27.9 µM with HL-60(TB) leukemia; 51 µM with OVCAR-3 ovarian; 81.7 µM with SK-MEL-2 melanoma; 29.9 µM with SN12C renal; 35.9 µM with ACHN renal. Further, the TGI came out at 52.2 µM in the experiment on BT-549 breast, 48.8 µM with RXF 393 renal and 37.3 µM with MDA-MB-231 breast.

With `C=CCN1CC2CON(C(=O)C(OC)(c3ccccc3)C(F)(F)F)C2C1C(C)C` (centres undefined), the GI50 is 15 µg/mL in the experiment with MOLT-4 leukemia; 6.09 µg/mL in the experiment on HL-60(TB) leukemia; 36.3 µg/mL in the experiment with OVCAR-3 ovarian; 27.8 µg/mL in the experiment on SK-MEL-2 melanoma; 41.9 µg/mL with SN12C renal; 38.1 µg/mL with ACHN renal. Also, the GI50 in the experiment on BT-549 breast is 30.1 µg/mL; with MDA-MB-231 breast, 41.4 µg/mL. Besides, the TGI in the experiment with MOLT-4 leukemia turned out to be 46.6 µg/mL; in the experiment on HL-60(TB) leukemia it was 23.3 µg/mL.

In the case of `CCC(=O)Nc1ccc(N=NN(C)C)cc1`, the TGI with MOLT-4 leukemia was 43.4 µM; in the experiment with HL-60(TB) leukemia it was more than 100 µM; with SK-MEL-2 melanoma, more than 100 µM; in the experiment with SN12C renal, more than 100 µM; in the experiment on PC-3 prostate, more than 100 µM; in the experiment on ACHN renal, more than 100 µM. The TGI in the experiment on BT-549 breast, in the experiment on RXF 393 renal and in the experiment on MDA-MB-231 breast was more than 100 µM each time.

As for `O=C(N/N=C/c1c(Cl)cccc1Cl)c1ccc(C(F)(F)F)nc1Nc1cccc(C(F)(F)F)c1`, the GI50 in the experiment with MOLT-4 leukemia is 0.394 µM; with HL-60(TB) leukemia it was 0.552 µM; with OVCAR-3 ovarian it was 0.284 µM; in the experiment with SK-MEL-2 melanoma, 1.87 µM; with SN12C renal, 0.912 µM; with PC-3 prostate, 0.767 µM. The GI50 is 1.26 µM in the experiment with ACHN renal, 2.6 µM with BT-549 breast and 1.51 µM with MDA-MB-231 breast. Further, the TGI with MOLT-4 leukemia was 7.7 µM; in the experiment with OVCAR-3 ovarian, 6.47 µM; in the experiment on SK-MEL-2 melanoma it was 8.19 µM; with SN12C renal, 20.8 µM; with PC-3 prostate, more than 21.1 µM; with ACHN renal it was 11.3 µM. Further, the TGI in the experiment on BT-549 breast was determined as 9 µM; in the experiment with MDA-MB-231 breast, 11.1 µM.

`Clc1cc(Cl)cc(Nc2ccc3cc(OCCCN4CCOCC4)ccc3n2)c1`: the GI50 in the experiment on MOLT-4 leukemia was 1.77 µM; with HL-60(TB) leukemia, 2.57 µM; in the experiment on OVCAR-3 ovarian, 2.36 µM; in the experiment on SK-MEL-2 melanoma, 2.7 µM; in the experiment with SN12C renal it was 3.46 µM; in the experiment on BT-549 breast, 2.65 µM. Further, the GI50 with RXF 393 renal was 1.51 µM; with MDA-MB-231 breast, 1.81 µM. For the same compound, the TGI is 5.81 µM in the experiment on MOLT-4 leukemia; 5.96 µM with HL-60(TB) leukemia; 6.4 µM in the experiment on OVCAR-3 ovarian; 6.97 µM in the experiment on SK-MEL-2 melanoma; more than 100 µM in the experiment with SN12C renal; 9.44 µM in the experiment on BT-549 breast. In addition, the TGI with RXF 393 renal was determined as 3.6 µM; in the experiment with MDA-MB-231 breast, 4.27 µM.
